Where a name gives a salt, the structure may show the parent alone. Square brackets hold non-standard residues; d marks the D form. Peptide text beside a SMILES is read from it. * marks the point of attachment. Propyl(2R-PamO,3-PamO) = CCCCCCCCCCCCCCCC(=O)OC[C@H](C*)OC(=O)CCCCCCCCCCCCCCC
Columns and labels:
leukocytes = test: Enhancing the number of leukocytes in cyclophosphamide-treated mice; format: in vivo, CDF1/Crj mice; conditions: percentage relative to mice without cyclophosphamide (100%)
Method: Six weeks old female CDF1/Crj mice (5 animals per group) were subjected to the experiment. Each animal was orally administered with cyclophosphamide dissolved in physiological saline solution at a dose of 150 mg/kg. From the next day, each animal was administered subcutaneously with the compound suspended in 5% glucose at the following dosage for five days once a day. On the next day after completion of the administration, about 100 µl of peripheral blood was collected from orbital vein using an EDTA-treated glass capillary. Then, the number of leukocytes was counted using an automatic cell analyzer (Sysmex K-2000, Toa Medical Electronics, Japan).

[1] = tested on: Non adherent bone marrow cells of BALB/c mice; test: Enhancing development of AchE positive cells (fluorescence method); format: cell-based; conditions: 10 ng/ml; 37°C, 5 days; AchE activity in the group without compound is shown as 1
From the text: Action of compound (I) on enhancing development of acetylcholine esterase (hereinafter abbreviated as AchE) positive cells are shown in Table 4.
The AchE activity was studied according to a fluorescence method (Ishibashi et al., Proceedings of the National Academy of Science U.S.A., Vol. 86, pp. 5953 to 5957, 1989).
Non adherent bone marrow cells of BALB/c mice (1 x 10⁶ cells/ml) were suspended in Iscove's modification of Dulbecco's medium (Gibco BRL Inc., U.S.A.) containing 1% Neutridoma-SP (Boheringer Mannhaim, Germany). Twenty-five µl of a test compound solution in an adequate concentration was inoculated in a 96-well plate. To each of these solutions in the well was added 100 µl of the non adherent bone marrow cells suspension. After incubation at 37°C for 5 days, 25 µl of 6% glutaraldehyde aqueous solution was added to the well. After standing at 4°C for 30 minutes the mixture was centrifuged (850 x g) at 5°C for 5 minutes and the supernatant was removed. […] To this was added 10 µl of 0.4 mM 7-diethylamino-3-(4'-maleimidylphenyl)-4-methylcoumarin aqueous solution and 100 µl of buffer (pH 5.0) containing 0.2% POPE, 1 mM EDTA and 50 mM sodium acetate and fluorescence emission was determined on a fluorometer (excitation wave length: 365 nm, fluorescence wave length: 450 nm).

[2] = tested on: bone marrow cells of BALB/c mice; test: Enhancing proliferation of bone marrow cells of mice (MTT reduction method); format: cell-based; conditions: concentration giving 1.3 or more times the proliferation of the group without test compound; 37°C, 3 days
Method: Actions of compound (I) produced in the foregoing Examples on enhancing proliferation of bone marrow cells of mice are shown in Table 2.
To a RPMI 1640 culture medium [Bio-Wittaker Inc. (hereinafter abbreviated as BW), U.S.A.] containing 2 x 10⁶/ml of bone marrow cells of BALB/c mice, 2 mM of L-glutamine, 20 µg/ml of gentamicin (Flow Laboratories, Inc., Scotland), 10% fetal calf serum (BW, U.S.A.) was added a test compound in an adequate concentration, which was incubated at 37°C for 3 days in 5% carbon dioxide in air followed by determination of proliferation of the bone marrow cells by the MTT reduction method [Tada et al., Journal of Immunological Methods, Vol. 93, p.157, 1986].

mice = test: Toxicity test, intravenous administration; format: in vivo; conditions: intravenous administration at 125 mg/kg
Method: Intravenous administration of trisodium salt of compound 1 at 125 mg/kg caused no death in mice.

CCCCCCCCCCCCCCCC(=O)OC[C@H](CSC[C@H](NC(=O)CN)C(=O)N[C@@H](CCC(=O)O)C(=O)NCC(=O)N[C@H](CCC(=O)O)C(=O)O)OC(=O)CCCCCCCCCCCCCCC [Compound 1, (2R,6R)-2-(H-Gly-amino)-6,7-bis(PamO)-4-THT-Glu-Gly-D-Glu-OH] (H-GC(Propyl(2R-PamO,3-PamO))EG[dE]-OH)
Number of leukocytes (leukocytes; 0.50 mg/kg/day subcutaneously for 5 days after oral cyclophosphamide 150 mg/kg): 137% | Degree of AchE Positive Cell [1]: 1.92 | Minimal Effective Concentration (MEC, ng/ml) [2]: 6.25 ng/mL

CCCCCCCCCCCCCCCC(=O)OC[C@H](CSC[C@H](NC(=O)CN)C(=O)N[C@@H](CCC(=O)O)C(=O)NCC(=O)N[C@H](CCC(=O)O)C(=O)O)OC(=O)CCCCCCCCCCCCCCC [trisodium salt of compound 1] (H-GC(Propyl(2R-PamO,3-PamO))EG[dE]-OH)
death (mice): no death

CCCCCCCCCCCCCCCC(=O)OC[C@H](CSC[C@H](NC(=O)CNC(=O)[C@@H](N)CCC(=O)O)C(=O)N[C@@H](CCC(=O)O)C(=O)NCC(=O)N[C@H](CCC(=O)O)C(=O)O)OC(=O)CCCCCCCCCCCCCCC [Compound 4, (2R,6R)-2-(H-Glu-Gly-amino)-6,7-bis(PamO)-4-THT-Glu-Gly-D-Glu-OH] (H-EGC(Propyl(2R-PamO,3-PamO))EG[dE]-OH)
Number of leukocytes (leukocytes; 0.13 mg/kg/day subcutaneously for 5 days after oral cyclophosphamide 150 mg/kg): 108%

CCCCCCCCCCCCCCCC(=O)OC[C@H](CSC[C@H](NC(=O)[C@@H](N)Cc1ccc(O)cc1)C(=O)N[C@@H](CCC(=O)O)C(=O)NCC(=O)N[C@H](CCC(=O)O)C(=O)O)OC(=O)CCCCCCCCCCCCCCC [Compound 5, (2R,6R)-2-(H-Tyr-amino)-6,7-bis(PamO)-4-THT-Glu-Gly-D-Glu-OH] (H-YC(Propyl(2R-PamO,3-PamO))EG[dE]-OH)
Minimal Effective Concentration (MEC, ng/ml) [2]: 6.25 ng/mL

From patent publication EP0638588A1, “Derivatives of 6,7-Dihydroxy-4-thiaheptonic acid and their use” (TAKEDA CHEMICAL INDUSTRIES, LTD., priority 1993, dated 1995)
